Assay type in all cases: functional, organism-based
In test [1] the test system is Plasmodium falciparum. In words: Antimalarial activity against Plasmodium falciparum infected in erythrocytes in presence of 1 uM pantothenic acid by SYBR safe-based fluorescence assay.
For test [2], the system named is Plasmodium falciparum. The test can be described thus: Antimalarial activity against Plasmodium falciparum infected in erythrocytes in presence of 1 uM pantothenic acid and TBA salt form by SYBR safe-based fluorescence assay.
The subject of test [3] is Plasmodium falciparum. The test can be described thus: Antimalarial activity against Plasmodium falciparum infected in erythrocytes in presence of 100 uM pantothenic acid and TBA salt form by SYBR safe-based fluorescence assay.

Regarding `CC(C)(CO)[C@@H](O)C(=O)N/C=C/C(=O)O`, the results for the IC50 with Plasmodium falciparum [1], in the test with Plasmodium falciparum [2] and in the test on Plasmodium falciparum [3] were 64 µM, 25 µM and 25 µM, respectively.
Turning to `CCCC[N+](CCCC)(CCCC)CCCC` [TETRABUTHYLAMMONIUM], in the test with Plasmodium falciparum [1], the IC50 worked out at 5 µM.

As a reminder, the IC50 is the point on the concentration scale where inhibition reaches its midpoint.

These data come from ChEMBL document CHEMBL4373679, “Overcoming synthetic challenges in targeting coenzyme A biosynthesis with the antimicrobial natural product CJ-15,801” (Medchemcomm, 2019).
